Key:
HT-29 cell line = tested on: HT-29 cell line; parameters: method as in PMID 26774930; conditions: read-out: IC50 HT-29 cell viability; cited from earlier work
RT-112 cells [1] = assay: Immunostaining of microtubules (β-tubulin antibody); format: cell-based
Procedure: (§1) An amount of 6 mg/ml tubulin was resuspended in the PEM buffer (80 mM PIPES (pH 6.9), 1 mM EGTA, 0.5 mM MgCl2, […], 10.2% (v/v) glycerol) and then was preincubated with a sulfonamide-dithiocarbamate hybrid 13d on the ice. The reaction was monitored by a spectrophotometer (Beijng Tianhe Company) at 37 °C to obtain the results of tubulin polymerisation in vitro. RT-112 cells were treated with sulfonamide-dithiocarbamate hybrid 13d for 48 h. Then, slices were fixed by 4% paraformaldehyde for 20 min and washed by PBS for five times. 0.6% Triton-X-100 was added and 0.1% BSA was used to block. β-tubulin antibody was added to incubate overnight at 4 °C. DAPI was used to stain and then images were captured.
Tubulin polymerisation inhibitory effects of the sulfonamide-dithiocarbamate hybrid 13d were further explored by the immunofluorescent staining in RT-112 cells. […] However, after the exposure to 0.25 µM of compound 13d, the microtubule organisation in the cytosol were disrupted.

[2] = tested on: E-cadherin, N-cadherin, Vimentin, Snail and Slung in RT-112 cells; assay: Western blot of migration-related proteins; format: cell-based; conditions: 48 h, 0.5, 1 and 2 µM
Procedure: RT-112 cells were treated with compound 13d and then lysed in a RIPA lysis buffer. The protein samples of RT-112 cells were electrophoresed on SDS-PAGE. Nextly, targeted proteins were transferred to PVDF membrane and incubated with antibodies (E-cadherin, N-cadherin, Vimentin, Snail and Slung). The markers were visualised by chemiluminescence detection reagents.
To further characterise the migration effect of sulfonamide-dithiocarbamate hybrid 13d, the expression levels of migration-related proteins (E-cadherin, N-cadherin, Vimentin, Snail and Slung) were investigated against RT-112 cells. Compound 13d was treated for 48 h at concentrations of 0.5, 1 and 2 µM, respectively. […] In addition, hybrid 13d increased the expression of E-cadherin in a concentration manner.

RT-112 cells [3] = assay: RT-112 xenograft nude mouse model; format: in vivo, nude mice; conditions: 80 mg/kg intragastric, every day for 21 days
Procedure: In vivo experiments were processed according to guidelines established by the ethics committee of the 4th affiliated hospital of CMU. Mice were implanted with RT-112 cells (1.5 × 10^7 cells per mouse) on the right flank of nude mice. The mice were divided into the saline group and sulfonamide-dithiocarbamate hybrid 13d (80 mg/kg) group (n = 5 mice for each group). Intragastric administration of hybrid 13d was performed every day for a period of 21 days.
In order to investigate the tumor growth effects of compound 13d, the xenograft nude mouse of RT-112 cells were established.

tubulin = assay: Tubulin polymerisation assay in vitro; format: biochemical; conditions: for IC50: 6 mg/ml tubulin, PEM buffer, 37 °C, read-out: IC50 tubulin polymerisation inhibitory activity in vitro
Procedure: as §1
Tubulin polymerisation assay investigated that compound 13d inhibited tubulin polymerisation in a concentration dependent manner.

RT-112 = assay: CCK8 antiproliferative assay, bladder cancer cells RT-112; format: cell-based; conditions: Homo sapiens, treatment for 48 h
Procedure: (§2) Breast cancer cells (MDA-MB-453), liver cancer cells (SNU-423), and bladder cancer cells (UM-UC-3, RT-112, RT4, T24) were purchased from the Shanghai culture company, and cultured at 37 °C in an atmosphere containing 5% CO2. 4,000 cells per well were seeded into a 96-well plate for 24 h and compounds were added to cluture 48 h. Next, 6 mg/ml CCK8 (20 µl) per well was added to explore the cell survival.
(§3) CCK8 method was used to investigate the anticancer activity in vitro of sulfonamide-dithiocarbamate hybrids 13a–13d against cancer cells for 48 h. MDA-MB-453 (breast cancer cells), SNU-423 (liver cancer cells) and RT-112 (bladder cancer cells) were selected to explore the antiproliferative activity. In this work, 5-fluorouracil (5-Fu) was used as the control drug.
(§4) In order to explore the antiproliferation ability, four bladder cancer cell lines (UM-UC-3, RT-112, RT4 and T24) were selected and treated with the hybrid 13d in the 24-well plate for 48 h and 72 h. […] Compared with the cell proliferation of 48 h, the cell proliferation of 72 h was decreased.

T24 = assay: Cell proliferation of bladder cancer cells T24; format: cell-based; conditions: Homo sapiens, T-24; treatment for 48 h
Procedure: as §2, §4

MCF-7 = assay: CCK8 antiproliferative assay, breast cancer cells; format: cell-based; conditions: Homo sapiens, MCF7, treatment for 48 h, means of three independent experiments
UM-UC-3 = assay: Cell proliferation of bladder cancer cells UM-UC-3; format: cell-based; conditions: Homo sapiens, UMUC3; treatment for 48 h
Procedure: as §2, §4

RT-112 cells [4] = assay: Transwell migration assay; format: cell-based; conditions: 48 h
Procedure: Transwell chamber was used to do migration assay according to the reported references[17]^,[18]. Ten thousand RT-112 cells containing compound 13d were seeded in the top chambers for 24 h incubation. The bottom chambers were fixed and stained with crystal violet for 2 h. Finally, the chambers were washed with water, and the top membrane was left to dry.
Based on the antiproliferative activity results, compound 13d was selected to investigate the anticancer mechanisms against the RT-112 cell line. Corning transwell plate was used to do migration assay against RT-112 cells for 48 h. With the treatment of sulfonamide-dithiocarbamate hybrid 13d at 0.5, 1 and 2 µM, the migration rate of RT-112 cells was 76%, 40% and 29%, respectively.

SNU-423 = assay: CCK8 antiproliferative assay, liver cancer cells; format: cell-based; conditions: Homo sapiens, treatment for 48 h, means of three independent experiments
Procedure: as §2, §3

RT4 = assay: Cell proliferation of bladder cancer cells RT4; format: cell-based; conditions: Homo sapiens, RT-4; treatment for 48 h
Procedure: as §2, §4

[5] = tested on: MDA-MB-453, SNU-423 and RT-112; assay: CCK8 antiproliferative assay, all three cancer cells; format: cell-based; conditions: CCK8, 48 h; read-out: IC50 against all three cancer cells
Procedure: as §2, §3

MCF-7 cells = tested on: MCF-7 cells; parameters: method as in PMID 28802125; conditions: read-out: IC50 MCF-7 antiproliferative activity; cited from earlier work
T47D cells = tested on: T47D cells; parameters: method as in PMID 28212337; conditions: read-out: IC50 T47D anticancer activity in vitro; cited from earlier work

NS(=O)(=O)c1ccc(Nc2nc(-c3ccc(Cl)cc3)nc3ccccc23)cc1 [Compound 2]
IC50 (HT-29 cell line): 5.45 µM

COc1cc(N(CCCSC(=S)N2CCN(C(C)=O)CC2)S(=O)(=O)c2cccc3cccnc23)cc(OC)c1OC [Compound 13d, 3-(N-(3,4,5-trimethoxyphenyl)quinoline-8-sulfonamido)propyl-4-acetylpiperazine-1-carbodithioate]
microtubule organisation in the cytosol (RT-112 cells [1]; 0.25 µM): disrupted | changes of the mitotic spindles (RT-112 cells [1]; 0.5 µM): more clearly observed | expression of E-cadherin [2]: increased | expression of N-cadherin [2]: decreased | expression of Slung [2]: decreased | expression of Snail [2]: decreased | expression of Vimentin [2]: decreased | average tumor weight (RT-112 cells [3]): 0.51 ± 0.21 g | body weights versus control group (RT-112 cells [3]): no significant difference | inhibitory rate (tumor weight) (RT-112 cells [3]): 66.67% | tumor volume versus control group (RT-112 cells [3]): obviously less than that of the control group | IC50 (tubulin): 2.9 µM | tubulin polymerisation inhibition (tubulin; at 2 µM): weak inhibition | tubulin polymerisation inhibition (tubulin; at 6 µM): significantly inhibited | IC50 (RT-112): 0.7 ± 0.1 µM | IC50 (T24): 2.6 µM | IC50 (MCF-7): 2.8 ± 0.2 µM | IC50 (UM-UC-3): 0.9 µM | migration rate of RT-112 cells (RT-112 cells [4]; 13d at 0.5 µM): 76% | migration rate of RT-112 cells (RT-112 cells [4]; 13d at 1 µM): 40% | migration rate of RT-112 cells (RT-112 cells [4]; 13d at 2 µM): 29% | IC50 (SNU-423): 3 ± 0.1 µM | melting point: 128 to 129 °C | IC50 (RT4): 1.9 µM

COc1cc(N(CCCSC(=S)N2CCN(C)CC2)S(=O)(=O)c2cccc3cccnc23)cc(OC)c1OC [Compound 13a, 3-(N-(3,4,5-trimethoxyphenyl)quinoline-8-sulfonamido)propyl-4-methylpiperazine-1-carbodithioate]
IC50 (RT-112): 7.8 ± 0.4 µM | IC50 (MCF-7): 6.4 ± 1.2 µM | IC50 (SNU-423): 8.7 ± 0.9 µM | melting point: 96 to 98 °C

COc1cc(N(CCCBr)S(=O)(=O)c2cccc3cccnc23)cc(OC)c1OC [Compound 12, N-(3-bromopropyl)-N-(3,4,5-trimethoxyphenyl)quinoline-8-sulfonamide]
IC50 (RT-112): > 40 µM | IC50 (MCF-7): > 40 µM | IC50 (SNU-423): > 40 µM | melting point: 129 to 131 °C | IC50 [5]: > 40 µM

CCN1CCN(C(=S)SCCCN(c2cc(OC)c(OC)c(OC)c2)S(=O)(=O)c2cccc3cccnc23)CC1 [Compound 13b, 3-(N-(3,4,5-trimethoxyphenyl)quinoline-8-sulfonamido)propyl-4-ethylpiperazine-1-carbodithioate]
IC50 (RT-112): 6.8 ± 0.7 µM | IC50 (MCF-7): 8.5 ± 0.7 µM | IC50 (SNU-423): 5.4 ± 0.3 µM | melting point: 131 to 133 °C

O=c1[nH]cc(F)c(=O)[nH]1 [Compound 5-Fu, 5-fluorouracil, reference compound]
IC50 (RT-112): 13.6 ± 0.2 µM | IC50 (MCF-7): 7.4 ± 0.5 µM | IC50 (SNU-423): 10.8 ± 0.7 µM

NS(=O)(=O)c1ccc(/N=C2\NC(=O)/C(=C3/C(=O)Nc4ccc(Cl)cc43)S2)cc1 [Compound 3]
IC50 (MCF-7 cells): 3.96 µM

C#CCSc1ccnc2c(S(=O)(=O)N(C)CC#C)cccc12 [Compound 4]
IC50 (T47D cells): 0.27 µM

COc1cc(N(CCCSC(=S)N2CCN(CCO)CC2)S(=O)(=O)c2cccc3cccnc23)cc(OC)c1OC [Compound 13c, 3-(N-(3,4,5-trimethoxyphenyl)quinoline-8-sulfonamido)propyl-4–(2-hydroxyethyl)piperazine-1-carbodithioate]
IC50 (tubulin): 3.4 µM | tubulin polymerisation inhibition (tubulin; at 2 µM): weak inhibition | tubulin polymerisation inhibition (tubulin; at 6 µM): significantly inhibited | IC50 (RT-112): 4.1 ± 0.6 µM | IC50 (MCF-7): 4.2 ± 0.1 µM | IC50 (SNU-423): 3.6 ± 0.7 µM | melting point: 106 to 108 °C

COc1cc(NS(=O)(=O)c2cccc3cccnc23)cc(OC)c1OC [Compound 11, N-(3,4,5-trimethoxyphenyl)quinoline-8-sulfonamide]
IC50 (RT-112): > 40 µM | IC50 (MCF-7): > 40 µM | IC50 (SNU-423): > 40 µM | melting point: 181 to 183 °C | IC50 [5]: > 40 µM

Reference: PMC6713100, “Anticancer sulfonamide hybrids that inhibit bladder cancer cells growth and migration as tubulin polymerisation inhibitors” (Journal of Enzyme Inhibition and Medicinal Chemistry, 2019)
